Results from article PMC6017236, “Activation Profile Analysis of CruCA4, an α-Carbonic Anhydrase Involved in Skeleton Formation of the Mediterranean Red Coral, Corallium rubrum” (Molecules : A Journal of Synthetic Chemistry and Natural …, 2017).

target: T1, CruCA4 (Corallium rubrum, UniProt A0A1B0Y987); experiment: stopped-flow CO2 hydrase activation assay; type: biochemical; details: activation constant (activator); CO2 1.7-17 mM substrate, pH 7.5, 25 °C, 15 min pre-incubation
T1 construct: gene CA4
Source text: stopped-flow CO2 hydrase activation assay on CruCA4

T1 sequence (A0A1B0Y987 entry or part of it): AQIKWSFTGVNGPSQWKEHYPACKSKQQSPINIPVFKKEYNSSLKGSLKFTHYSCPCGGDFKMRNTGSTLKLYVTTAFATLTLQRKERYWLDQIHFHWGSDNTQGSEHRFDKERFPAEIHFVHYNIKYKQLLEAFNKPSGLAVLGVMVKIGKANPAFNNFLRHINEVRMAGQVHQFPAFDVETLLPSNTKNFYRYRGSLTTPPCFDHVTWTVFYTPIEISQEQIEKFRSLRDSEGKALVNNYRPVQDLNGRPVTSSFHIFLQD

KA (μM) * / CruCA4 ^b | SMILES
36.9 µM | N[C@@H](Cc1cnc[nH]1)C(=O)O [compound 1, L-His]
0.098 µM | N[C@H](Cc1c[nH]cn1)C(=O)O [compound 2, D-His]
1.01 µM | N[C@H](Cc1ccccc1)C(=O)O [compound 4, D-Phe]
13.7 µM | N[C@@H](Cc1ccc(O)c(O)c1)C(=O)O [compound 5, L-DOPA]
0.93 µM | N[C@H](Cc1ccc(O)c(O)c1)C(=O)O [compound 6, D-DOPA]
9.48 µM | N[C@@H](Cc1c[nH]c2ccccc12)C(=O)O [compound 7, L-Trp]
8.35 µM | N[C@H](Cc1c[nH]c2ccccc12)C(=O)O [compound 8, D-Trp]
0.074 µM | Nc1ccc(C[C@H](N)C(=O)O)cc1 [compound 11, 4-H2N-L-Phe]
0.41 µM | NCc1ccccn1 [compound 15, 2-Pyridyl-methylamine]
0.004 µM | NCCN1CCNCC1 [compound 17, 1-(2-Aminoethyl)-piperazine]
0.15 µM | NCCN1CCOCC1 [compound 18, 4-(2-Aminoethyl)-morpholine]
